{
  "source": "patent US20050209104A1",
  "about": "“Dinoflagellate karlotoxins, methods of isolation and uses thereof” (priority 2002, published 2005)",
  "tested_on": "rat embryonic fibroblast (REF 52) cells",
  "assay": "Ion permeation measurement, Ca^2+ flux with fura-2 (fibroblasts)",
  "type": "cell-based",
  "experimental": "The following cell types were tested for toxicity due to KmTx 2; rat embryonic fibroblast, rat intestional epithelial, and isolated rabbit primary sensory neurons. Cells were cultured on No. 1 glass coverslips and loaded with fluorescent indicator (fura-2) and were examined on an inverted epifluorescence microscope (model Diaphot; 40×CF Fluor objective, N.A. 1.30; Nikon Corp.) coupled to a spectrofluorometer (model CM1T10I, SPEX Industries) operating in the microfluorometry mode. Cells were bathed in 4 ml of Dulbecco's modified Eagle's medium (DMEM) buffered with HEPES (pH 7.4). KmTx 2 (stock solution in DMSO) was directly bath-applied with gentle convective mixing. Fura-2 was alternately excited at 340 and 380 nm. Fluorescence emission was passed through a 510-nm bandpass filter before photometric quantitation. DATAMAX software (SPEX Industries) was used for data acquisition and instrument control. Origin software (OriginLab Corp.) was used for data reduction and analysis",
  "note": "“Also recorded” adds a separate entry of the source.",
  "data": [
    {"smiles": "C=C(CC[C@H](O)[C@H]1O[C@H](C[C@@H](O)[C@H](O)[C@H](C)CCC[C@@H](O)[C@H](O)[C@H](O)[C@@H](C)CC[C@@H](O)[C@H](O)[C@H](C)C[C@@H](O)CCC[C@@H](O)CCC[C@@H](O)/C=C/C[C@@H](O)CO)[C@@H](O)[C@@H](O)[C@@H]1O)[C@H](O)[C@H](O)[C@@H]1C[C@H](O)[C@H](O)[C@@H]([C@H](O)[C@@H](O)/C=C/CCCCCCCC/C=C/C=C/Cl)O1", "note": "[KmTx 2]", "values": [
      {"measurement": "intracellular free Ca^2+ concentration ([Ca^2+]i)", "setting": "0.25 μg/ml", "result": "marked increase in intracellular free Ca^2+ concentration; also recorded: rapid increase in cytosolic Ca^2+ levels followed by slight recovery"},
      {"measurement": "intracellular free Ca^2+ concentration ([Ca^2+]i)", "setting": "1 μg/ml", "result": "sharp and irreversible rise in [Ca^2+]i; also recorded: rapid rise in cytosoloc Ca^2+ levels with no recovery"}
    ]}
  ]
}
